Laboratory results: PubChem BioAssay AID256 (DTP/NCI, 2004)
Toxic doses and inconclusive results are not listed. Non-standard residues stand in square brackets, D forms with d. Residues, ends and D or L forms follow the SMILES beside them. ξ: configuration not given here. ξF = NC(Cc1ccccc1)C(=O)O; Ac5c = NC1(C(=O)O)CCCC1

System: CD2F1 mice, L1210 leukemia ip, survival T/C
Experiment: NCI In Vivo Anticancer Drug Screen. Data for tumor model L1210 Leukemia (intraperitoneal) in CD2F1 (CDF1) mice
Conditions: higher = longer survival
Summary of the method: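 Each value reflects a quotient of treated over vehicle control outcomes in mice with a transplanted tumor.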

[1] = endpoint: mean survival time, dose: 100.0 mg/kg/injection, schedule: Q01DX009 (ip), vehicle: saline with Tween-80
[2] = endpoint: mean survival time, dose: 200.0 mg/kg/injection, schedule: Q01DX009 (ip), vehicle: saline with Tween-80
[3] = endpoint: mean survival time, dose: 400.0 mg/kg/injection, schedule: Q01DX009 (ip), vehicle: saline with Tween-80
[4] = endpoint: mean survival time, dose: 100.0 mg/kg/injection, schedule: Q01DX001 (ip), vehicle: saline with Tween-80
[5] = endpoint: mean survival time, dose: 200.0 mg/kg/injection, schedule: Q01DX001 (ip), vehicle: saline with Tween-80
[6] = endpoint: mean survival time, dose: 400.0 mg/kg/injection, schedule: Q01DX001 (ip), vehicle: saline with Tween-80
[7] = endpoint: mean survival time, dose: 100.0 mg/kg/injection, schedule: Q04DX002 (ip), vehicle: saline with Tween-80
[8] = endpoint: mean survival time, dose: 100.0 mg/kg/injection, schedule: Q04DX003 (ip), vehicle: saline with Tween-80
[9] = endpoint: mean survival time, dose: 200.0 mg/kg/injection, schedule: Q04DX003 (ip), vehicle: saline with Tween-80
[10] = endpoint: mean survival time, dose: 400.0 mg/kg/injection, schedule: Q04DX003 (ip), vehicle: saline with Tween-80
[11] = endpoint: mean survival time, dose: 200.0 mg/kg/injection, schedule: Q04DX002 (ip), vehicle: saline with Tween-80
[12] = endpoint: mean survival time, dose: 400.0 mg/kg/injection, schedule: Q04DX002 (ip), vehicle: saline with Tween-80
[13] = endpoint: mean survival time, dose: 50.0 mg/kg/injection, schedule: Q01DX009 (ip), vehicle: saline with Tween-80

CNNCc1c[nH]c(=O)[nH]c1=O
T/C (endpoint: mean survival time, dose: 25.0 mg/kg/injection, schedule: Q01DX009 (ip), vehicle: water): 110 % of control
T/C (endpoint: mean survival time, dose: 50.0 mg/kg/injection, schedule: Q01DX009 (ip), vehicle: water): 102 % of control
T/C (endpoint: mean survival time, dose: 100.0 mg/kg/injection, schedule: Q01DX009 (ip), vehicle: water): 102 % of control
T/C (endpoint: mean survival time, dose: 200.0 mg/kg/injection, schedule: Q01DX009 (ip), vehicle: water): 93 % of control
T/C (endpoint: mean survival time, dose: 400.0 mg/kg/injection, schedule: Q01DX009 (ip), vehicle: water): 100 % of control

N#C/C(=C/Cc1ccccc1)Nc1ccccc1
T/C [1]: 97 % of control
T/C (endpoint: mean survival time, dose: 100.0 mg/kg/injection, schedule: Q04DX003 (ip), vehicle: saline sonified): 97 % of control
T/C [2]: 101 % of control
T/C (endpoint: mean survival time, dose: 200.0 mg/kg/injection, schedule: Q04DX003 (ip), vehicle: saline sonified): 97 % of control
T/C [3]: 87 % of control
T/C (endpoint: mean survival time, dose: 400.0 mg/kg/injection, schedule: Q04DX003 (ip), vehicle: saline sonified): 96 % of control

Nc1cc(C(=O)Nc2ccc(C3=NCCN3)cc2)cc(C(=O)Nc2ccc(C3=NCCN3)cc2)c1
T/C (endpoint: mean survival time, dose: 31.3 mg/kg/injection, schedule: Q01DX010 (oral), vehicle: saline): 115 % of control
T/C (endpoint: mean survival time, dose: 250.0 mg/kg/injection, schedule: Q01DX010 (oral), vehicle: saline): 159 % of control

Nc1cc2c(c[n+](CCO)c3ccccc23)c2ccccc12
T/C (endpoint: mean survival time, dose: 12.5 mg/kg/injection, schedule: Q04DX003 (ip), vehicle: water): 103 % of control
T/C (endpoint: mean survival time, dose: 25.0 mg/kg/injection, schedule: Q04DX003 (ip), vehicle: water): 104 % of control
T/C (endpoint: mean survival time, dose: 50.0 mg/kg/injection, schedule: Q04DX003 (ip), vehicle: water): 110 % of control
T/C (endpoint: mean survival time, dose: 100.0 mg/kg/injection, schedule: Q04DX003 (ip), vehicle: water): 120 % of control
T/C (endpoint: mean survival time, dose: 200.0 mg/kg/injection, schedule: Q04DX003 (ip), vehicle: water): 120 % of control

Cc1ccc(C(=O)C2OC2c2ccccc2)cc1 (stereo not given)
T/C [4]: 94 % of control
T/C [5]: 100 % of control
T/C [6]: 94 % of control

Cc1ccc(C2OC2C(=O)c2ccccc2)cc1 (stereo not given)
T/C (endpoint: mean survival time, dose: 50.0 mg/kg/injection, schedule: Q04DX002 (ip), vehicle: saline with Tween-80): 95 % of control
T/C [4]: 94 % of control
T/C [7]: 91 % of control
T/C [5]: 92 % of control
T/C [6]: 94 % of control

COc1ccc(C(=O)C(c2ccccc2)c2ccccc2)cc1
T/C [8]: 93 % of control
T/C [9]: 94 % of control
T/C [10]: 90 % of control

CCCCN=Cc1ccccc1O.CCCCN=Cc1ccccc1O.[Cr]
T/C [4]: 93 % of control

COc1ccc(NC(=O)Oc2ccc(SC)cc2)cc1
T/C [7]: 98 % of control
T/C [11]: 102 % of control
T/C [12]: 98 % of control

C/C(=N\NC(N)=S)C1=C(O)C(Cc2ccccc2)NC1=O (stereo not given)
T/C [7]: 100 % of control
T/C [11]: 100 % of control
T/C [12]: 100 % of control

Cc1ccc(NC(=O)Nc2ccc(S(N)(=O)=O)cc2)cc1C
T/C [13]: 96 % of control
T/C [1]: 87 % of control
T/C [2]: 87 % of control

CC1CCC2CON(C#N)C2C1 (stereo not given)
T/C (endpoint: mean survival time, dose: 100.0 mg/kg/injection, schedule: Q04DX003 (ip), vehicle: Klucel (hydroxypropylcellulose) (HPC)): 109 % of control
T/C (endpoint: mean survival time, dose: 200.0 mg/kg/injection, schedule: Q04DX003 (ip), vehicle: Klucel (hydroxypropylcellulose) (HPC)): 101 % of control
T/C (endpoint: mean survival time, dose: 400.0 mg/kg/injection, schedule: Q04DX003 (ip), vehicle: Klucel (hydroxypropylcellulose) (HPC)): 101 % of control

NNC(=S)Nc1ccccc1
T/C (endpoint: mean survival time, dose: 20.0 mg/kg/injection, schedule: Q04DX003 (ip), vehicle: saline with Tween-80): 98 % of control

CCc1ccc(NS(=O)(=O)c2ccccc2)cc1
T/C [1]: 90 % of control
T/C [2]: 106 % of control
T/C [3]: 95 % of control

O=C(OCC1CC=CC1)C1CC=CC1
T/C (endpoint: mean survival time, dose: 12.5 mg/kg/injection, schedule: Q01DX009 (ip), vehicle: saline with Tween-80): 104 % of control
T/C (endpoint: mean survival time, dose: 25.0 mg/kg/injection, schedule: Q01DX009 (ip), vehicle: saline with Tween-80): 95 % of control
T/C [13]: 98 % of control

COc1cc2c(c(OC)c1OC)-c1c(cc3c(c1OC)OCO3)CC(C)C(C)(O)C2OC(=O)c1ccccc1 (stereo not given)
T/C (endpoint: median survival time, dose: 25.0 mg/kg/injection, schedule: Q01DX009 (ip), vehicle: saline + Tween-80 + alcohol): 100 % of control
T/C (endpoint: median survival time, dose: 50.0 mg/kg/injection, schedule: Q01DX009 (ip), vehicle: saline + Tween-80 + alcohol): 102 % of control
T/C (endpoint: median survival time, dose: 100.0 mg/kg/injection, schedule: Q01DX009 (ip), vehicle: saline + Tween-80 + alcohol): 107 % of control
T/C (endpoint: median survival time, dose: 200.0 mg/kg/injection, schedule: Q01DX009 (ip), vehicle: saline + Tween-80 + alcohol): 102 % of control
T/C (endpoint: median survival time, dose: 400.0 mg/kg/injection, schedule: Q01DX009 (ip), vehicle: saline + Tween-80 + alcohol): 98 % of control

Nc1ccc2nc3ccc(N)cc3[n+](-c3ccccc3)c2c1
T/C (endpoint: mean survival time, dose: 6.0 mg/kg/injection, schedule: Q01DX009 (ip), vehicle: saline): 105 % of control
T/C (endpoint: mean survival time, dose: 8.0 mg/kg/injection, schedule: Q01DX009 (ip), vehicle: saline): 105 % of control
T/C (endpoint: mean survival time, dose: 12.0 mg/kg/injection, schedule: Q01DX009 (ip), vehicle: saline): 110 % of control

O.O.O=C(O)C(O)C(O)C(OC1OC(CO)C(O)C(O)C1O)C(O)CO.O=C(O)C(O)C(O)C(OC1OC(CO)C(O)C(O)C1O)C(O)CO.[NH-]C1CCCCC1[NH-].[Pt+2] (stereo not given)
T/C (endpoint: median survival time, dose: 3.12 mg/kg/injection, schedule: Q04DX003 (ip), vehicle: saline): 100 % of control
T/C (endpoint: median survival time, dose: 6.25 mg/kg/injection, schedule: Q04DX003 (ip), vehicle: saline): 100 % of control
T/C (endpoint: median survival time, dose: 12.5 mg/kg/injection, schedule: Q04DX003 (ip), vehicle: saline): 102 % of control
T/C (endpoint: median survival time, dose: 25.0 mg/kg/injection, schedule: Q04DX003 (ip), vehicle: saline): 101 % of control
T/C (endpoint: median survival time, dose: 50.0 mg/kg/injection, schedule: Q04DX003 (ip), vehicle: saline): 98 % of control
T/C (endpoint: median survival time, dose: 100.0 mg/kg/injection, schedule: Q04DX003 (ip), vehicle: saline): 101 % of control
T/C (endpoint: median survival time, dose: 200.0 mg/kg/injection, schedule: Q04DX003 (ip), vehicle: saline): 112 % of control

NC(Cc1ccccc1)C(=O)NC1(C(=O)O)CCCC1 (stereo not given) (H-[ξF]-[Ac5c]-OH)
T/C (endpoint: mean survival time, dose: 50.0 mg/kg/injection, schedule: Q01DX009 (ip), vehicle: saline): 100 % of control
T/C (endpoint: mean survival time, dose: 100.0 mg/kg/injection, schedule: Q01DX009 (ip), vehicle: saline): 107 % of control
T/C (endpoint: mean survival time, dose: 200.0 mg/kg/injection, schedule: Q01DX009 (ip), vehicle: saline): 107 % of control

CC(C)NC(=S)NC1=CCNN1c1ccccc1
T/C [7]: 100 % of control
T/C [11]: 88 % of control
T/C [12]: 88 % of control

O=C(OCC(OC(=O)c1ccccc1)C1OC(c2ccccc2)OC1C(COC(=O)c1ccccc1)OC(=O)c1ccccc1)c1ccccc1 (stereo not given)
T/C [8]: 97 % of control
T/C [9]: 101 % of control
T/C [10]: 97 % of control

CC(N)(CCO)C(=O)O (stereo not given)
T/C (endpoint: mean survival time, dose: 100.0 mg/kg/injection, schedule: Q01DX009 (ip), vehicle: saline sonified): 97 % of control
T/C [8]: 101 % of control
T/C (endpoint: mean survival time, dose: 200.0 mg/kg/injection, schedule: Q01DX009 (ip), vehicle: saline sonified): 104 % of control
T/C [9]: 101 % of control
T/C (endpoint: mean survival time, dose: 400.0 mg/kg/injection, schedule: Q01DX009 (ip), vehicle: saline sonified): 103 % of control
T/C [10]: 98 % of control

CC(=O)OC1CC2CC(O)(C(=O)CO)CC2C2CCC3=CC(=O)CC3C(C)(O)C12 (stereo not given)
T/C (endpoint: mean survival time, dose: 75.0 mg/kg/injection, schedule: Q01DX001 (ip), vehicle: saline): 91 % of control
T/C (endpoint: mean survival time, dose: 150.0 mg/kg/injection, schedule: Q01DX001 (ip), vehicle: saline): 96 % of control
T/C (endpoint: mean survival time, dose: 300.0 mg/kg/injection, schedule: Q01DX001 (ip), vehicle: saline): 95 % of control

CC/C(C)=C(/C(=O)O)c1ccccc1
T/C [1]: 95 % of control
T/C [2]: 98 % of control
T/C [3]: 97 % of control

Cc1cccc2cc3c(sc4ccccc43)c(C)c12
T/C (endpoint: mean survival time, dose: 7.9 mg/kg/injection, schedule: Q04DX003 (ip), vehicle: other): 101 % of control
T/C (endpoint: mean survival time, dose: 15.7 mg/kg/injection, schedule: Q04DX003 (ip), vehicle: other): 97 % of control
T/C (endpoint: mean survival time, dose: 31.3 mg/kg/injection, schedule: Q04DX003 (ip), vehicle: other): 97 % of control
T/C (endpoint: mean survival time, dose: 62.5 mg/kg/injection, schedule: Q04DX003 (ip), vehicle: other): 97 % of control
T/C (endpoint: mean survival time, dose: 125.0 mg/kg/injection, schedule: Q04DX003 (ip), vehicle: other): 93 % of control
